Laboratory results published in patent US8822517B2, “Arylosulfonamides for the treatment of CNS diseases” (Adamed SP. Z O.O., priority 2010, dated 2014).

What was measured:
adrenergic α1 receptor = assay: Binding assay α1 (non-selective), [3H]prazosin, rat cerebral cortex; conditions: percent inhibition of control specific binding; compounds tested at 1×10^−6 M
Procedure: (§1) The specific ligand binding to the receptors is defined as the difference between the total binding and the nonspecific binding determined in the presence of an excess of so unlabelled ligand.
(§2) The specific Ligand binding to the receptor is defined as the difference between total and non-specific binding determined in the presence of an excess of unlabelled ligand. The compounds were tested at a concentration of 1×10^−6 M, and scintillation counting was the method of detection of ligand binding.

[1] = molecular target: T1, serotoninergic 5-HT1A receptor (Homo sapiens, UniProt P08908); assay: Binding assay 5-HT1A (h), [3H]8-OH-DPAT, HEK-293 cells; set-up: expressed in transfected cells; host or cells: HEK-293 cells; conditions: for inhibition at 1 µM: read-out: 5-HT1A
T1 sequence (P08908 1-422): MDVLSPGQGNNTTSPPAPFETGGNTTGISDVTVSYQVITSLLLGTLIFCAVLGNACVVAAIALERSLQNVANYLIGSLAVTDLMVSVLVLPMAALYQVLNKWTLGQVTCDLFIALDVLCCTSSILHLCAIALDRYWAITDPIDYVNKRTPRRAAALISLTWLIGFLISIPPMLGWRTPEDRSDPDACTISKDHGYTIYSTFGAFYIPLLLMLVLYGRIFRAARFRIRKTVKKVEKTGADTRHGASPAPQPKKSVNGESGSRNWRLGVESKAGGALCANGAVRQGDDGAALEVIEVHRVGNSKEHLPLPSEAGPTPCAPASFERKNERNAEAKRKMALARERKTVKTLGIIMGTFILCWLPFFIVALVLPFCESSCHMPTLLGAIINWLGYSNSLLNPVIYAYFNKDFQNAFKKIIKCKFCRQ
Procedure: as §1, §2

dopaminergic D2 receptor = dopaminergic D2 receptor (Homo sapiens, UniProt P14416); assay: Binding assay D2S (h), [3H]methyl-spiperone, HEK-293 cells; set-up: expressed in transfected cells; host or cells: HEK-293 cells; conditions: for inhibition at 1 µM: read-out: D2 [%]
Procedure: as §1, §2

[2] = molecular target: T2, serotonine transporter (SERT) receptor (Homo sapiens, UniProt P31645); assay: Binding assay SERT (h), [3H]imipramine, CHO cells; conditions: for inhibition at 1 µM: read-out: SERT [%]
T2 construct: expressed in transfected cells; host or cells: CHO cells
Procedure: as §1, §2

[3] = molecular target: serotoninergic 5-HT6 receptor (Homo sapiens, UniProt P50406); assay: Binding assay 5-HT6 (h), [3H]LSD, CHO cells; set-up: expressed in transfected cells; host or cells: CHO cells; conditions: for inhibition at 1 µM: read-out: 5-HT6
Procedure: as §1, §2

dopaminergic D3 receptor = dopaminergic D3 receptor (Homo sapiens, UniProt P35462); assay: Binding assay D3 (h), [3H]methyl-spiperone, CHO cells; set-up: expressed in transfected cells; host or cells: CHO cells; conditions: for inhibition at 1 µM: read-out: D3 [%]
Procedure: as §1, §2

[4] = molecular target: serotoninergic 5-HT7 receptor (Homo sapiens, UniProt P34969); assay: Binding assay 5-HT7 (h), [3H]LSD, CHO cells; set-up: expressed in transfected cells; host or cells: CHO cells; conditions: for inhibition at 1 µM: read-out: 5-HT7
Procedure: as §1, §2

[5] = molecular target: serotoninergic 5-HT2A receptor (Homo sapiens, UniProt P28223); assay: Binding assay 5-HT2A (h), [3H]ketanserin, HEK-293 cells; set-up: expressed in transfected cells; host or cells: HEK-293 cells; conditions: for inhibition at 1 µM: read-out: 5-HT2A
Procedure: as §1, §2

[6] = percent inhibition of control specific binding, compounds tested at 1×10^−6 M

dopaminergic D3 receptor, sequence (P35462 whole entry): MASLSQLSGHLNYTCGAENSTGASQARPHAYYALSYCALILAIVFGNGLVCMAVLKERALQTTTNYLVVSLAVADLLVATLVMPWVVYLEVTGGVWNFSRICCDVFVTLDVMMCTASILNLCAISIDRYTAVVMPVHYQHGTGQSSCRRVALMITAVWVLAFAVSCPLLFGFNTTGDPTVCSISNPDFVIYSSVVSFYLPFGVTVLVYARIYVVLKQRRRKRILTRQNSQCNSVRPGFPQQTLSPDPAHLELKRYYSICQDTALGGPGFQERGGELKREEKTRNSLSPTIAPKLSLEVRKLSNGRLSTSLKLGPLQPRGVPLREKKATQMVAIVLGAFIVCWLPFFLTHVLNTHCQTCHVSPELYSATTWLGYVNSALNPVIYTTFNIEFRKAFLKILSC
dopaminergic D2 receptor, sequence (P14416 1-414 isoform P14416-2): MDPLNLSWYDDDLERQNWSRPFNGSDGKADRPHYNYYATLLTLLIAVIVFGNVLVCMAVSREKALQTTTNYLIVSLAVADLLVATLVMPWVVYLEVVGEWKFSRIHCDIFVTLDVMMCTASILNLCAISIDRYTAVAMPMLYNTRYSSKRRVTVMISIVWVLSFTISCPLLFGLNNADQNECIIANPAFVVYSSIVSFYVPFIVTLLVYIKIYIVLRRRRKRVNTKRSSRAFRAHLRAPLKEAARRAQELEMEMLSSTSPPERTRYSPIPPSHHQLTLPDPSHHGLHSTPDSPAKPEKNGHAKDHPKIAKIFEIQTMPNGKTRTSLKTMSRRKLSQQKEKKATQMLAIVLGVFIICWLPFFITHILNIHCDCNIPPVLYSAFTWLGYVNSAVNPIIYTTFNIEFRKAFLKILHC
serotoninergic 5-HT7 receptor, sequence (P34969 whole entry): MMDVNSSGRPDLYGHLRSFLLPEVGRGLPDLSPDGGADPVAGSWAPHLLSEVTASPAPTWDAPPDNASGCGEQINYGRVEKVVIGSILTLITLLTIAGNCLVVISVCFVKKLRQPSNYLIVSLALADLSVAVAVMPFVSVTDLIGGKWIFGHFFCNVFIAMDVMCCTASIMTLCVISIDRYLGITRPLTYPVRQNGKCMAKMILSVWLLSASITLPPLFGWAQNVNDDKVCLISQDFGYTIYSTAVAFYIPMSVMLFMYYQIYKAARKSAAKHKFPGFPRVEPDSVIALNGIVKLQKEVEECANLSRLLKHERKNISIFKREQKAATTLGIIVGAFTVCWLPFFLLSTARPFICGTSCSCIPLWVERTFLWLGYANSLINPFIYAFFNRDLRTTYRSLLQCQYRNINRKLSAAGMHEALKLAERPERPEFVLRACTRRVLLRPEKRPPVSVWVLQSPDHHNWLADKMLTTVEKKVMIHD
serotoninergic 5-HT6 receptor, sequence (P50406 whole entry): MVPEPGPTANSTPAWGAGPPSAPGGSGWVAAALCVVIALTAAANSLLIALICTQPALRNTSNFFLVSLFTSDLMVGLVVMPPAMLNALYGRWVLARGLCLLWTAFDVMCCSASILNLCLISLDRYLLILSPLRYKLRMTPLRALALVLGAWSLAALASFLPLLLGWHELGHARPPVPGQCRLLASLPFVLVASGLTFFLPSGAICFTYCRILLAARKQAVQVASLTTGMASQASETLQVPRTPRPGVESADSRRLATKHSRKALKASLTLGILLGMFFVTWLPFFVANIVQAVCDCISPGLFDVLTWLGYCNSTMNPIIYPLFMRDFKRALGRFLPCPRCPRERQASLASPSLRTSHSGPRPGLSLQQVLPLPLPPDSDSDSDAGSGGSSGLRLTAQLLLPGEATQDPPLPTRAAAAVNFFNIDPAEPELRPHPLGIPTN
serotoninergic 5-HT2A receptor, sequence (P28223 whole entry): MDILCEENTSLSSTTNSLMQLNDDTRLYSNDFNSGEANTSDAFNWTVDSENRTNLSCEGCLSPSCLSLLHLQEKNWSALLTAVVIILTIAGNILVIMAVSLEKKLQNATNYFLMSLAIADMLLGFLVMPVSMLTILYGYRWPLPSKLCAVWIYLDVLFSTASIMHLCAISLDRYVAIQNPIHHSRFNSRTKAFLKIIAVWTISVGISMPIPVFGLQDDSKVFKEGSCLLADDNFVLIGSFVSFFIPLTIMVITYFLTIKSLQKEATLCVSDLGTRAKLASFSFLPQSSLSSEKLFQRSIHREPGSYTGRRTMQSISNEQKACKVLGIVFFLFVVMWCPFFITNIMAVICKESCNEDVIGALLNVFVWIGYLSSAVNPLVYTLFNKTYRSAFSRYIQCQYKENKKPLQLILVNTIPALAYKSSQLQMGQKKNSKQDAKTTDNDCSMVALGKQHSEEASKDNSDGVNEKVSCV
T2 sequence (P31645 whole entry): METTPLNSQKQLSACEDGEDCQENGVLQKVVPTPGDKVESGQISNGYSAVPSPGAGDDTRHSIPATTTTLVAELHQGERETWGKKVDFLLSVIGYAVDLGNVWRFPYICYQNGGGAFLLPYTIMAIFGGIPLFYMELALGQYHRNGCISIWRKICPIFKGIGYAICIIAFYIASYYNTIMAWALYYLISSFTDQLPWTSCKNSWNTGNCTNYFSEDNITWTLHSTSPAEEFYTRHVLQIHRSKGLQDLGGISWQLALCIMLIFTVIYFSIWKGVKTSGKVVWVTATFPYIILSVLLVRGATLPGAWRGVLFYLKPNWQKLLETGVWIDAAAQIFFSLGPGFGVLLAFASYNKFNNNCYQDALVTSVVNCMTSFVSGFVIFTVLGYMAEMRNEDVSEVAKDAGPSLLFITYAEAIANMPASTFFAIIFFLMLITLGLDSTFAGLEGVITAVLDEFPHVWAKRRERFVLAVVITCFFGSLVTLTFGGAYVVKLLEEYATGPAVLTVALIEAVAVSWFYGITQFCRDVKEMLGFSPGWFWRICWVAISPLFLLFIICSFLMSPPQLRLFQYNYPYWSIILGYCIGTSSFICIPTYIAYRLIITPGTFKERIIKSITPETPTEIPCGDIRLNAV

| SMILES | α1 [%] (adrenergic α1 receptor) | 5-HT1A [1, 6] | D2 [%] (dopaminergic D2 receptor; [6]) | SERT [%] [2, 6] | 5-HT6 [3, 6] | D3 [%] (dopaminergic D3 receptor; [6]) | 5-HT7 [4, 6] | 5-HT2A [5, 6] | inhibition at 1 µM [1] | inhibition at 1 µM (dopaminergic D2 receptor) | inhibition at 1 µM [2] | inhibition at 1 µM [3] | inhibition at 1 µM (dopaminergic D3 receptor) | inhibition at 1 µM [4] | inhibition at 1 µM [5] |
| --- | --- | --- | --- | --- | --- | --- | --- | --- | --- | --- | --- | --- | --- | --- | --- |
| COc1ccc(S(=O)(=O)NCCCCN2CC=C(c3c[nH]c4ccc(Cl)cc34)CC2)cc1 [Compound 42, 4-Methoxy-N{4-[4-(5-chloro-1H-indol-3-yl)-3,6-dihydropyridin-1(2H)-yl]butyl}benzenesulphonamide] | 77% | 90% | 74% | 96% | 96% | 101% | 76% | 77% | – | – | – | – | – | – | – |
| O=S(=O)(NCCCN1CCN(c2nsc3ccccc23)CC1)c1ccc2cc(Cl)ccc2c1 [Compound 62, N-[3-[4-(1,2-Benzothiazol-3-yl)piperazin-1-yl]propyl]-6-chloro-naphthalene-2-sulphonamide] | 61% | – | – | – | – | – | – | – | 46% | 92% | 15% | 69% | 63% | 78% | 101% |
| O=S(=O)(NCCCCN1CCN(c2nsc3ccccc23)CC1)c1cccc(Cl)c1 [Compound 69, N-[4-[4-(1,2-Benzothiazol-3-yl)piperazin-1-yl]butyl]-3-chlorobenzenesulphonamide] | 94% | – | – | – | – | – | – | – | 80% | 106% | 6% | 88% | 77% | 96% | 92% |
| O=S(=O)(NCCCCN1CCN(c2nsc3ccccc23)CC1)c1cccc(F)c1 [Compound 71, N-[4-[4-(1,2-Benzothiazol-3-yl)piperazin-1-yl]butyl]-3-fluorobenzenesulphonamide] | 99% | – | – | – | – | – | – | – | 89% | 103% | 41% | 76% | 91% | 99% | 94% |
| O=S(=O)(NCCCN1CCN(c2nsc3ccccc23)CC1)c1cccc(F)c1 [Compound 72, N-[3-[4-(1,2-Benzothiazol-3-yl)piperazin-1-yl]propyl]-3-fluorobenzenesulphonamide] | 93% | – | – | – | – | – | – | – | 95% | 99% | 44% | 78% | 95% | 101% | 94% |
| N#Cc1cccc(S(=O)(=O)NCCCCN2CCN(c3nsc4ccccc34)CC2)c1 [Compound 73, N-[4-[4-(1,2-Benzothiazol-3-yl)piperazin-1-yl]butyl]-3-cyanobenzenesulphonamide] | 98% | – | – | – | – | – | – | – | 92% | 102% | 37% | 82% | 94% | 91% | 81% |
| O=S(=O)(NCCCN1CCN(c2nsc3ccccc23)CC1)c1cnc2ccccn12 [Compound 76, N-[3-[4-(1,2-Benzothiazol-3-yl)piperazin-1-yl]propyl]imidazo[1,2-a]pyridine-3-sulphonamide] | 95% | – | – | – | – | – | – | – | 90% | 94% | 15% | 70% | 71% | 86% | 81% |
| O=S(=O)(NCCCCN1CCN(c2noc3ccccc23)CC1)c1cccc(Cl)c1 [Compound 85, N-[4-[4-(1,2-Benzoxazol-3-yl)piperazin-1-yl]butyl]-3-chlorobenzenesulphonamide] | 98% | – | – | – | – | – | – | – | 54% | 100% | 2% | 77% | 77% | 99% | 88% |
| O=S(=O)(NCCCCN1CCN(c2noc3ccccc23)CC1)c1cccc(F)c1 [Compound 87, N-[4-[4-(1,2-Benzoxazol-3-yl)piperazin-1-yl]butyl]-3-fluorobenzenesulphonamide] | 98% | – | – | – | – | – | – | – | 41% | 87% | 2% | 67% | 77% | 90% | 89% |
| O=S(=O)(NCCCCN1CCN(c2noc3ccccc23)CC1)c1cccc(C(F)(F)F)c1 [Compound 91, N-[4-[4-(1,2-Benzoxazol-3-yl)piperazin-1-yl]butyl]-3-(trifluoromethyl)benzenesulphonamide] | 99% | – | – | – | – | – | – | – | 40% | 92% | 2% | 83% | 70% | 99% | 95% |
| O=S(=O)(NCCCCN1CCN(c2noc3ccccc23)CC1)c1ccc(Cl)c(Cl)c1 [Compound 93, N-[4-[4-(1,2-Benzoxazol-3-yl)piperazin-1-yl]butyl]-3,4-dichlorobenzenesulphonamide] | 97% | – | – | – | – | – | – | – | 48% | 98% | 0% | 92% | 86% | 88% | 90% |
| O=S(=O)(NCCCCN1CCC(c2noc3cc(F)ccc23)CC1)c1cccc(Cl)c1 [Compound 105, 3-Chloro-N-[4-[4-(6-fluoro-1,2-benzoxazol-3-yl)piperidin-1-yl]butyl]benzenesulphonamide] | 96% | – | – | – | – | – | – | – | 41% | 107% | -11% | 87% | 88% | 85% | 91% |
| O=S(=O)(NCCCCN1CCC(c2noc3cc(F)ccc23)CC1)c1cccc(F)c1 [Compound 107, 3-Fluoro-N-[4-[4-(6-fluoro-1,2-benzoxazol-3-yl)piperidin-1-yl]butyl]benzenesulphonamide] | 100% | – | – | – | – | – | – | – | 38% | 104% | -12% | 75% | 97% | 91% | 95% |
| O=S(=O)(NCCCN1CCC(c2noc3cc(F)ccc23)CC1)c1cccc(F)c1 [Compound 108, 3-Fluoro-N-[3-[4-(6-fluoro-1,2-benzoxazol-3-yl)piperidin-1-yl]propyl]benzenesulphonamide] | 100% | – | – | – | – | – | – | – | 48% | 106% | -9% | 86% | 98% | 90% | 88% |
| Cc1[nH]c2ccc(Cl)cc2c1C1=CCN(CCNS(=O)(=O)c2cccc(F)c2)CC1 [Compound 450, N-[2-[4-(5-Chloro-2-methyl-1H-indol-3-yl)-3,6-dihydro-2H-pyridin-1-yl]ethyl]-3-fluorobenzenesulphonamide] | −1% | – | – | – | – | – | – | – | – | 15% | 54% | 96% | 39% | 50% | – |
| Cc1[nH]c2ccc(Cl)cc2c1C1=CCN(CCNS(=O)(=O)c2ccc(Cl)cc2)CC1 [Compound 451, 4-Chloro-N-[2-[4-(5-chloro-2-methyl-1H-indol-3-yl)-3,6-dihydro-2H-pyridin-1-yl]ethyl]-benzensulphonamide] | −4% | – | – | – | – | – | – | – | – | 46% | 32% | 97% | 30% | 25% | – |
| Cc1[nH]c2ccc(Cl)cc2c1C1=CCN(CCNS(=O)(=O)c2cccc(O)c2)CC1 [Compound 453, N-[2-[4-(5-Chloro-2-methyl-1H-indol-3-yl)-3,6-dihydro-2H-pyridin-1-yl]ethyl]-3-hydroxybenzenesulphonamide] | 23% | – | – | – | – | – | – | – | – | 48% | 23% | 107% | 56% | 76% | – |
